# Test results from patent publication US20230266302A1, “SYNTHESIS AND USE OF N-BENZYL SULFONAMIDES” (THE UNIVERSITY OF TULSA, priority 2020, published 2023).
# Columns and labels:
# Test in all cases: ATP level assay (CellTiter-Glo), percent of control
# Type in all cases: cell-based
# [1] = test system: BxPC3 (pancreatic cancer); details: two hour incubation; for activity at 100 µM: Homo sapiens, BXPC-3, 2 h, compound alone, control DMSO, read-out: POC (percent of control) BxPC3
# H293 (kidney cancer) = details: two hour incubation; for activity at 100 µM: 2 h, compound alone, control DMSO, read-out: POC (percent of control) H293
# HDF (normal cells) = details: two hour incubation; for activity at 100 µM: 2 h, compound alone, control DMSO, read-out: POC (percent of control) HDF
# HeLa (cervical cancer) = details: two hour incubation; for activity at 100 µM: Homo sapiens, HeLa, 2 h, compound alone, control DMSO, read-out: POC (percent of control) HeLa
# [2] = test system: MCF10A (non-cancerous breast); details: two hour incubation; for activity at 100 µM: Homo sapiens, MCF-10A, 2 h, compound alone, control DMSO, read-out: POC (percent of control) MCF10A
# MCF7 (breast cancer) = details: two hour incubation; for activity at 100 µM: Homo sapiens, MCF7, 2 h, compound alone, control DMSO, read-out: POC (percent of control) MCF7
# NCI-H196 (lung cancer) = details: two hour incubation; for activity at 100 µM: NCI-H196, 2 h, compound alone, control DMSO, read-out: POC (percent of control) NCI-H196
# PC3 (prostate cancer) = details: two hour incubation; for activity at 100 µM: 2 h, compound alone, control DMSO, read-out: POC (percent of control) PC3
# T47D (breast cancer) = details: two hour incubation; for activity at 100 µM: Homo sapiens, T47D, 2 h, compound alone, control DMSO, read-out: POC (percent of control) T47D
# [3] = compound 100 uM + 2DG (about 10-20 mM)
# [4] = compound 100 uM + rotenone (approximately 1.25 μM)
Compound,activity at 100 µM [1] [%],"POC (percent of control) BxPC3 [1, 4]",activity at 100 µM (H293 (kidney cancer)) [%],POC (percent of control) H293 (H293 (kidney cancer); [3]),POC (percent of control) H293 (H293 (kidney cancer); [4]),activity at 100 µM (HDF (normal cells)) [%],POC (percent of control) HDF (HDF (normal cells); [3]),POC (percent of control) HDF (HDF (normal cells); [4]),activity at 100 µM (HeLa (cervical cancer)) [%],POC (percent of control) HeLa (HeLa (cervical cancer); [3]),POC (percent of control) HeLa (HeLa (cervical cancer); [4]),activity at 100 µM [2] [%],"POC (percent of control) MCF10A [2, 3]","POC (percent of control) MCF10A [2, 4]",activity at 100 µM (MCF7 (breast cancer)) [%],POC (percent of control) MCF7 (MCF7 (breast cancer); [3]),POC (percent of control) MCF7 (MCF7 (breast cancer); [4]),activity at 100 µM (NCI-H196 (lung cancer)) [%],POC (percent of control) NCI-H196 (NCI-H196 (lung cancer); [3]),POC (percent of control) NCI-H196 (NCI-H196 (lung cancer); [4]),also measured
"Cc1cccc2c(CNS(=O)(=O)c3ccccc3)c[nH]c12 [Compound 6, N-[(7-methyl-1H-indol-3-yl)methyl]benzenesulfonamide]",68.9,69.7% of control,62.6,31.6% of control,49.6% of control,48.8,37.7% of control,61.3% of control,75.3,47.3% of control,66.9% of control,52.3,41.3% of control,87.8% of control,72,41% of control,63.4% of control,64.3,34.3% of control,23.7% of control,"POC (percent of control) BxPC3 [1, 3]: 33.4% of control; activity at 100 µM (PC3 (prostate cancer)): 38.3%; POC (percent of control) PC3 (PC3 (prostate cancer); [3]): 35.9% of control; POC (percent of control) PC3 (PC3 (prostate cancer); [4]): 54.3% of control; activity at 100 µM (T47D (breast cancer)): 23.7%; POC (percent of control) T47D (T47D (breast cancer); [3]): 19.7% of control; POC (percent of control) T47D (T47D (breast cancer); [4]): 39.1% of control"
"O=S(=O)(NCc1c[nH]c2ccccc12)c1ccc(Cl)cc1 [Compound 2, N-[(1H-indol-3-yl)methyl]-4-chlorobenzenesulfonamide]",69,86.4% of control,43.8,20% of control,47.6% of control,49.3,37.5% of control,57.6% of control,64.6,30.8% of control,57.5% of control,42.9,23.7% of control,58.7% of control,70.1,25.1% of control,56.9% of control,50.9,22.9% of control,23.5% of control,activity at 100 µM (PC3 (prostate cancer)): 30.9%; POC (percent of control) PC3 (PC3 (prostate cancer); [3]): 16.7% of control; POC (percent of control) PC3 (PC3 (prostate cancer); [4]): 36.6% of control; activity at 100 µM (T47D (breast cancer)): 22.2%; POC (percent of control) T47D (T47D (breast cancer); [3]): 16.6% of control; POC (percent of control) T47D (T47D (breast cancer); [4]): 30.8% of control
"Cc1ccc(S(=O)(=O)NCc2c[nH]c3cccc(Br)c23)cc1 [Compound 5, N-[(4-bromo-1H-indol-3-yl)methyl]-4-methylbenzenesulfonamide]",54.3,36.5% of control,49.7,17.2% of control,41.2% of control,70.5,16.1% of control,83.5% of control,76.1,22.3% of control,31.9% of control,55.3,15.8% of control,45% of control,86.4,18.7% of control,55.6% of control,47.7,4.2% of control,9.1% of control,"POC (percent of control) BxPC3 [1, 3]: 10.5% of control; activity at 100 µM (PC3 (prostate cancer)): 68.3%; POC (percent of control) PC3 (PC3 (prostate cancer); [3]): 4.8% of control; POC (percent of control) PC3 (PC3 (prostate cancer); [4]): 18.3% of control; activity at 100 µM (T47D (breast cancer)): 36.6%; POC (percent of control) T47D (T47D (breast cancer); [3]): 13.8% of control; POC (percent of control) T47D (T47D (breast cancer); [4]): 36% of control"
